The values below come from BindingDB's records for doi:10.7270/Q2D798VP (Broad Institute, 2009).

The experiment addresses T1, Zinc finger protein mex-5 (Caenorhabditis elegans, UniProt Q9XUB2).
T1 sequence (Q9XUB2 whole entry): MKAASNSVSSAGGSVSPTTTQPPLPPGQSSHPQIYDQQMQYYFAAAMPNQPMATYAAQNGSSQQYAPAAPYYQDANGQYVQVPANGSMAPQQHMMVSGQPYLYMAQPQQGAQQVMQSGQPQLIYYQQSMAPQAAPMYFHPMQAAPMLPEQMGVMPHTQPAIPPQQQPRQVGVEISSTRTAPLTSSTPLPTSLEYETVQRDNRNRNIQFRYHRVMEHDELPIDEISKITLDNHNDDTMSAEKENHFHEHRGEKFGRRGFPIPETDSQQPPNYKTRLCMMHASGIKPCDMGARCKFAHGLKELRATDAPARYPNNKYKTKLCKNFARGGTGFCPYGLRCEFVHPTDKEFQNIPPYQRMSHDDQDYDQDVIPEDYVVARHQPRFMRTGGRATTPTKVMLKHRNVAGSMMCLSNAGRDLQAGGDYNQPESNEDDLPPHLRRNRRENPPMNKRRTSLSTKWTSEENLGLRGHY
Put plainly: potency of MEX-5 RNA-binding blockers – biochemical, C. elegans, fluorescence polarization, dose response (AID 1960). On the technique in general: Polarisation of emitted light reports the rotation of a fluorescent probe.

The EC50 is the concentration at which the effect is half-maximal. A higher EC50 goes with weaker potency. In turn, `CCCCOC(=O)c1ccc(NN=C2C(=O)NC(=O)C(C#N)=C2C)cc1` [MLS000778379] showed an EC50 of over 300 µM. As for `Brc1ccc(C2=Nc3ncnn3C(c3ccco3)C2)cc1` (stereo unspecified), the figure is 18.1 µM; as for `CC(N=Nc1ccc(Cl)c(C(=O)O)c1)c1ccc[nH]1` (stereo unspecified) [2-chloro-5-[2-[(1Z)-1-pyrrol-2-ylideneethyl]hydrazinyl]benzoic acid], 150 µM. In turn, `C=c1cc(O)c(CN(C)C)c2oc(=Cc3ccco3)c(O)c12` [(2Z)-7-[(dimethylamino)methyl]-2-(furan-2-ylmethylidene)-6-hydroxy-4-methyl-1-benzofuran-3-one] gave an EC50 of 39.8 µM. For the molecule `O=C(N[N-][CH+]c1cc([N+](=O)[O-])ccc1N1CCCC1)c1ccccn1` [MLS000684285], a half-maximal response (EC50) required 70.5 µM. The value for `Cc1c(NC=C2C(=O)NC(=O)N(Cc3ccco3)C2=O)c(=O)n(-c2ccccc2)n1C` [(5E)-1-(2-furfuryl)-5-[[(3-keto-1,5-dimethyl-2-phenyl-3-pyrazolin-4-yl)amino]methylene]barbituric acid] was over 300 µM; that for `O=C1C=CC(/C=C/c2nc(O)c([N+](=O)[O-])c(=O)[nH]2)C=C1O` (stereo unspecified) [SMR000524347] was 179 µM; that for `CCCSc1nnc(N2C(=O)C(=O)C(C(=O)c3ccco3)C2c2ccccc2F)s1` (stereo unspecified) [2-(2-fluorophenyl)-3-(furan-2-carbonyl)-4-hydroxy-1-(5-propylsulfanyl-1,3,4-thiadiazol-2-yl)-2H-pyrrol-5-one] was over 300 µM. As to `C=CCSc1nnc(N2C(=O)C(=O)C(C(=O)c3ccco3)C2c2ccccc2F)s1` (stereo unspecified) [1-[5-(allylthio)-1,3,4-thiadiazol-2-yl]-5-(2-fluorophenyl)-4-(2-furoyl)-3-hydroxy-3-pyrrolin-2-one], the response was half-maximal at 54.8 µM (EC50). For `CCCOc1cccc(C2C(C(=O)c3ccco3)C(=O)C(=O)N2c2nnc(C)s2)c1` (stereo unspecified) [3-(furan-2-carbonyl)-4-hydroxy-1-(5-methyl-1,3,4-thiadiazol-2-yl)-2-(3-propoxyphenyl)-2H-pyrrol-5-one], the EC50 was 82.7 µM. Consider `Cc1nnc(N2C(=O)C(=O)C(C(=O)c3ccco3)C2c2ccc(F)cc2)s1` (stereo unspecified) [2-(4-fluorophenyl)-3-(furan-2-carbonyl)-4-hydroxy-1-(5-methyl-1,3,4-thiadiazol-2-yl)-2H-pyrrol-5-one], for which the EC50 was 32.9 µM.

In turn, `Cc1cc(=O)[nH]c(N=NCc2ccc(O)c(O)c2)n1` [MLS001194906] gave an EC50 of 125 µM. `Cn1c2cc(=N)ccc-2c2ccc(N)cc2c1-c1ccccc1` [(3-amino-5-methyl-6-phenyl-phenanthridin-5-ium-8-yl)amine;bromide] showed an EC50 of 5.36 µM.

In turn, `Cc1[nH]n(C(N)=S)c(=O)c1N=Nc1cccc(C(=O)O)c1` [3-[(1-carbamothioyl-3-methyl-5-oxo-4H-pyrazol-4-yl)diazenyl]benzoic acid] came in with an EC50 of 22.7 µM. In turn, `O=C(c1ccccc1)[C@@H]1c2c(c(O)n(-c3ccc(F)cc3)c2O)C2CCCN21` (stereo partly specified) [MLS000769629] registered an EC50 of 40.9 µM. The molecule `O=C1NC(=O)N(Cc2ccccc2Cl)C(=O)C1=CNc1ccc(F)cc1` [(5E)-1-(2-chlorobenzyl)-5-[(4-fluoroanilino)methylene]barbituric acid] registered an EC50 of over 300 µM. Consider `COc1ccc(N2C(=O)NC(=O)C(=Cc3c[nH]c4ccc(Br)cc34)C2=O)c(OC)c1` [(5E)-5-[(5-bromo-1H-indol-3-yl)methylene]-1-(2,4-dimethoxyphenyl)pyrimidine-2,4,6(1H,3H,5H)-trione], for which the EC50 is over 300 µM. For `COc1ccc(C2C3=C(CC(C)(C)CC3=O)OC(=N)C2C#N)cc1OC` (stereo unspecified) [2-amino-4-(3,4-dimethoxyphenyl)-5-keto-7,7-dimethyl-6,8-dihydro-4H-chromene-3-carbonitrile], the EC50 is over 300 µM. Take `CC(C)c1nnc(N2C(=O)C(=O)C(C(=O)c3cccs3)C2c2ccccc2)s1` (stereo unspecified) [3-hydroxy-1-(5-isopropyl-1,3,4-thiadiazol-2-yl)-5-phenyl-4-(2-thenoyl)-3-pyrrolin-2-one]: the EC50 amounted to 4.38 µM. For the molecule `C(=NNC(=Nc1ccccc1)c1ccccn1)c1ccccn1` [SMR000174637], the response was half-maximal at 94.4 µM (EC50).

Turning to `COc1ccc(CCN2C(=O)NC(=O)C(=CNc3ccc(NC(C)=O)cc3)C2=O)cc1OC` [MLS000332913], the EC50 was over 300 µM. As to `COc1ccc(N=CCC(=O)c2ccc(C)cc2)cc1OC` [SMR000269732], the EC50 was over 300 µM.

Take `COc1ccccc1N1C(=O)C(=Nc2ccccc2O)C(Cl)C1=O` (stereo unspecified) [3-chloranyl-4-[(2-hydroxyphenyl)amino]-1-(2-methoxyphenyl)pyrrole-2,5-dione]: the EC50 is 8.19 µM. The value for `O=C(O)c1cc(-c2ccc(C=C3NC(=O)N(c4ccc(Cl)cc4)C3=O)o2)ccc1Cl` [2-chloranyl-5-[5-[(Z)-[1-(4-chlorophenyl)-2,5-bis(oxidanylidene)imidazolidin-4-ylidene]methyl]furan-2-yl]benzoic acid] was 38.6 µM; that for `O=C1N=c2ccccc2=C1NNc1cccc(Cl)c1` [(3E)-1H-indole-2,3-dione 3-[(3-chlorophenyl)hydrazone]] was 45.4 µM; that for `O=C(N/N=C/C1C=C(Cl)C=C([N+](=O)[O-])C1=O)c1ccc2c(c1)OCO2` (stereo unspecified) [N'-[(E)-(3-chloranyl-5-nitro-6-oxidanylidene-cyclohexa-2,4-dien-1-ylidene)methyl]-1,3-benzodioxole-5-carbohydrazide] was 241 µM.

As for `CC(C)(C)OC(=O)N1CCC2=C(C#N)C(=N)C(C#N)(C#N)[C@H](c3cccnc3)[C@H]2C1` [(8S,8aR)-6-amino-5,7,7-tricyano-8-(3-pyridinyl)-1,3,8,8a-tetrahydroisoquinoline-2-carboxylic acid tert-butyl ester], the EC50 amounted to 54 µM.

Turning to `O=C(NN=Cc1c(O)n(-c2ccccc2)c(=S)[nH]c1=O)c1ccc(O)cc1` [N'-[(1Z)-(4,6-dioxo-1-phenyl-2-thioxohexahydropyrimidin-5-yl)methylene]-4-hydroxybenzohydrazide], it took 63.7 µM to reach a half-maximal effect (EC50). As for `Cc1cc(CN=Nc2ccc([N+](=O)[O-])cn2)c(C)n1-c1cccc(C(=O)O)c1` [3-[2,5-dimethyl-3-[[(5-nitro-2-pyridinyl)hydrazinylidene]methyl]-1-pyrrolyl]benzoic acid], the EC50 stood at 37.7 µM.

In turn, `COc1cc(CN=Nc2[nH]c(=O)nnc2C)ccc1O` [5-[2-[(E)-(3-methoxy-4-oxocyclohexa-2,5-dien-1-ylidene)methyl]hydrazinyl]-6-methyl-2H-1,2,4-triazin-3-one] showed an EC50 of 31.1 µM.

In turn, `Cn1c(=O)[nH]c(=O)c2c1nc(N=NC=C(Br)Cc1ccccc1)n2CCO` [SMR000436442] yielded an EC50 of 55.5 µM.

`CCN(CC)CCN1C(=O)C(=O)C(C(=O)c2cc3cccc(OC)c3o2)C1c1ccc(F)cc1` (stereo unspecified) [1-(2-Diethylamino-ethyl)-5-(4-fluoro-phenyl)-3-hydroxy-4-(7-methoxy-benzofuran-2-carbonyl)-1,5-dihydr o-pyrrol-2-one] displayed an EC50 of over 300 µM. As to `COc1ccc(C=C2CCCC(C(=O)C(F)(F)F)C2=O)cc1OC` (stereo unspecified) [(2E,6Z)-2-(3,4-dimethoxybenzylidene)-6-(2,2,2-trifluoro-1-hydroxyethylidene)cyclohexanone], the EC50 stood at 254 µM. For the molecule `NC(=O)c1ccccc1N=CCC(=O)c1ccc(F)cc1` [2-[[(E)-3-(4-fluorophenyl)-3-keto-prop-1-enyl]amino]benzamide], the EC50 is over 300 µM.

Take `O=C(NN=Cc1c(O)ccc2ccccc12)c1cncc(Br)c1` [5-bromo-N'-[(Z)-(2-oxo-1-naphthalenylidene)methyl]-3-pyridinecarbohydrazide]: the EC50 is 256 µM. In turn, `Cc1ccc(N=CC2Sc3ccccc3NC2=O)cc1` (stereo unspecified) [(2E)-2-(p-toluidinomethylene)-4H-1,4-benzothiazin-3-one] came in with an EC50 of over 300 µM. For `CN1C(=O)/C(=C/c2ccc(-c3ccccc3[N+](=O)[O-])o2)S/C1=N/c1ccc(Cl)c(C(=O)O)c1` [2-Chloro-5-[3-methyl-5-[1-[5-(2-nitro-phenyl)-furan-2-yl]-meth-(Z)-ylidene]-4-oxo-thiazolidin-(2Z)-ylideneamino]-benzoic acid], the half-maximal effective concentration (EC50) amounted to 22.6 µM.

Take `c1ccc(C2=Nc3nnnn3C(c3cccs3)C2)cc1` (stereo unspecified) [5-Phenyl-7-thiophen-2-yl-4,7-dihydro-tetrazolo[1,5-a]pyrimidine]: the EC50 was over 300 µM. As for `O=C1NC(=S)N(c2ccccc2)C(=O)C1=Cc1ccco1` [(5E)-5-(2-furanylmethylidene)-1-phenyl-2-sulfanylidene-1,3-diazinane-4,6-dione], the figure is 254 µM. Molecule `Cc1cc(-c2ccccc2)nc(N=NCc2ccc(O)cc2O)n1` [SMR000513422] had an EC50 of 54 µM.

`CC1(C)CC(=O)C2Sc3ccccc3N=C2C1` (stereo unspecified) [2,2-Dimethyl-2,3-dihydro-1H,10H-phenothiazin-4-one]: the EC50 amounted to 59.3 µM. Molecule `O=C(c1ccccc1)c1[nH]n(-c2ccccc2)c2c(O)n(-c3ccccc3Cl)c(=O)c1-2` [SMR000212371] returned an EC50 of over 300 µM. The molecule `CCCCCCN1C(=O)C(=CNc2ccccc2N2CCOCC2)C(=O)NC1=S` [MLS000333666] registered an EC50 of over 300 µM.

On to `COc1ccc(NC=C2C(=O)NC(=S)N(Cc3ccccc3)C2=O)c(OC)c1` [1-Benzyl-5-[1-(2,4-dimethoxy-phenylamino)-meth-(Z)-ylidene]-2-thioxo-dihydro-pyrimidine-4,6-dione], for which the EC50 is over 300 µM. Take `Cc1cc(C=NNC(=O)c2cccc(N(C)C)c2)c(C)n1-c1cc(C(=O)O)cc(C(=O)O)c1` [5-[3-((E)-{[3-(dimethylamino)benzoyl]hydrazono}methyl)-2,5-dimethyl-1H-pyrrol-1-yl]isophthalic acid]: the EC50 was found to be 143 µM. `c1ccc(CN=Nc2nc3ccccc3[nH]2)nc1`: the EC50 is 41.7 µM.
